{"source": "patent US4808409A", "about": "“Low cariogenic sweetening agents” (Board of Trustees, University of Illinois, priority 1984, dated 1989)", "key": {"in vivo": {"test": "in vivo", "conditions": "mouse, in vivo, po", "experimental": "(§1) Compounds were suspended in a minimum volume of 1% sodium carboxymethylcellulose, and were administered by oral intubation at the doses indicated in Table II.\n(§2) ^a Male SwissWebster mice (9 or 10 animals per dose).\n(§3) ^d Mortality = number of mice dying within 14 days/number of starting\n(§4) ^e Mortality = number of mice dying within 24 hours/number of startin"}, "male Swiss-Webster mice": {"tested_on": "male Swiss-Webster mice", "test": "in vivo", "experimental": "as §1, §2, §3, §4"}, "human taste panel": {"tested_on": "human taste panel", "test": "Human taste panel magnitude estimation of sweetness intensity and pleasantness", "text": "Solutions were presented to the subjects in a randomized fashion and were sampled in duplicate. After tasting, each solution was expectorated, and the mouth was washed with distilled water."}, "Water solubility": {"test": "Water solubility", "type": "physicochemical"}, "[1]": {"test": "Stability in citrate-phosphate-borate buffer solutions by TLC", "type": "physicochemical", "experimental": "The first of these manipulations was conducted by storage of this compound in citrate-phosphate-borate buffer solutions, at the pH levels 2, 3, 4, 6, 7, 8, 10, and 12. […] Solutions were exposed to the atmosphere after their constitution.\nCompound decomposition was assessed by counting the number of zones apparent by TLC analysis 1 hour, 3 hours, 6 hours, 24 hours, 1 week and 2 weeks after solution composition."}, "[2]": {"test": "Thermostability of neat hernandulcin at 100° C. by TLC", "type": "physicochemical", "source_text": "These figures represent approximations obtained by calculating TLC zone areas."}, "[3]": {"test": "Body weight variation in mice following oral administration", "conditions": "mouse, in vivo, po", "experimental": "as §1"}, "[4]": {"tested_on": "Salmonella typhimurium strain TM677", "test": "Forward mutation assay", "type": "cell-based"}, "S. mutans [5]": {"tested_on": "S. mutans", "test": "Cariogenicity: acid production by S. mutans from sweetener", "type": "cell-based", "experimental": "In a first test, the ability of microbes to utilize this sweetener source as a nutrient and convert it to acidic by-products was determined."}, "S. mutans [6]": {"tested_on": "S. mutans", "test": "Cariogenicity: inhibition of acid production from sucrose by S. mutans", "type": "cell-based", "conditions": "428 micrograms per unit volume sucrose, 5,000 micrograms per unit volume sweetener", "experimental": "In a second test, the ability of the test compound to inhibit acid production from sucrose by S. mutans was determined."}, "[7]": {"conditions": "natural hernandulcin 2.5 × 10^-4 M"}, "[8]": {"conditions": "synthetic hernandulcin, 60° C., 1 week and 2 weeks"}, "[9]": {"conditions": "synthetic hernandulcin, 100° C., 24 hours, TLC zone areas"}}}
{"smiles": "CC1=CC(=O)CCC1", "note": "[3-Methyl-2-cyclohexen-1-one, 3-methyl-2-cyclohexen-1-one]", "values": [{"measurement": "LD50 at 24 h", "setting": "in vivo", "result": "< 2000", "unit": "mg/kg"}, {"measurement": "Estimated LD50", "setting": "male Swiss-Webster mice; mouse, in vivo, po", "result": "1600 ± 130", "unit": "mg/kg"}, {"measurement": "Mortality at 1.1 g/kg", "setting": "male Swiss-Webster mice; oral, 1.1 g/kg", "result": "0/10"}, {"measurement": "Mortality at 1.3 g/kg", "setting": "male Swiss-Webster mice; oral, 1.3 g/kg", "result": "2/10"}, {"measurement": "Mortality at 1.4 g/kg", "setting": "male Swiss-Webster mice; oral, 1.4 g/kg", "result": "4/10"}, {"measurement": "Mortality at 1.6 g/kg", "setting": "male Swiss-Webster mice; oral, 1.6 g/kg", "result": "5/10"}, {"measurement": "Mortality at 2.0 g/kg (24 hours)", "setting": "male Swiss-Webster mice; oral, 2.0 g/kg, 24 hours", "result": "8/10"}, {"measurement": "Mortality at 2.4 g/kg", "setting": "male Swiss-Webster mice; oral, 2.4 g/kg", "result": "10/10"}, {"measurement": "Acute toxicity for mice", "setting": "male Swiss-Webster mice; oral, in words", "result": "essentially non-toxic"}]}
{"smiles": "CC(C)=CCC[C@@](C)(O)[C@H]1CCC(C)=CC1=O", "note": "(relative stereo) [Hernandulcin, 6-(1',5'-dimethyl-1'-hydroxyhex-4'-en-1'-yl)-3-methyl-2-cyclohexen-1-one]", "values": [{"measurement": "EC (sweetness equal to 0.27 M sucrose)", "setting": "human taste panel; Homo sapiens, natural hernandulcin, distilled water, 17 participants, read-out: Concentration matching the sweetness of 0.27 M sucrose", "result": 250, "unit": "µM"}, {"measurement": "Bitterness judged by the panel", "setting": "human taste panel; in words, natural hernandulcin", "result": "moderate bitterness"}, {"measurement": "Off- and after-tastes judged by the panel", "setting": "human taste panel; in words, natural hernandulcin", "result": "significant off- and after-tastes"}, {"measurement": "Pleasantness judged by the panel", "setting": "human taste panel; in words, natural hernandulcin", "result": "less pleasant than sucrose"}, {"measurement": "After-taste intensity", "setting": "human taste panel; [7]", "result": 30}, {"measurement": "After-taste pleasantness", "setting": "human taste panel; [7]", "result": 0}, {"measurement": "Bitterness", "setting": "human taste panel; [7]", "result": 15}, {"measurement": "Off-taste intensity", "setting": "human taste panel; [7]", "result": 33}, {"measurement": "Off-taste pleasantness", "setting": "human taste panel; [7]", "result": -5}, {"measurement": "Concentration matching the sweetness of 0.27 M sucrose", "setting": "human taste panel; natural hernandulcin, distilled water, 17 participants", "result": "~250", "unit": "µM"}, {"measurement": "Sweetness intensity, hernandulcin 1.06 × 10^-5 M", "setting": "human taste panel; natural, 1.06 × 10^-5 M, scale 0-100, mean (standard error)", "result": "9.7 (4.19)"}, {"measurement": "Sweetness pleasantness, hernandulcin 1.06 × 10^-5 M", "setting": "human taste panel; natural, 1.06 × 10^-5 M, scale -100 to +100, mean (standard error)", "result": "1.2 (5.58)"}, {"measurement": "Sweetness intensity, hernandulcin 2.11 × 10^-5 M", "setting": "human taste panel; natural, 2.11 × 10^-5 M, scale 0-100, mean (standard error)", "result": "8.8 (2.37)"}, {"measurement": "Sweetness pleasantness, hernandulcin 2.11 × 10^-5 M", "setting": "human taste panel; natural, 2.11 × 10^-5 M, scale -100 to +100, mean (standard error)", "result": "2.6 (6.00)"}, {"measurement": "Sweetness intensity, hernandulcin 4.24 × 10^-5 M", "setting": "human taste panel; natural, 4.24 × 10^-5 M, scale 0-100, mean (standard error)", "result": "8.8 (3.18)"}, {"measurement": "Sweetness pleasantness, hernandulcin 4.24 × 10^-5 M", "setting": "human taste panel; natural, 4.24 × 10^-5 M, scale -100 to +100, mean (standard error)", "result": "1.2 (4.18)"}, {"measurement": "Sweetness intensity, hernandulcin 8.47 × 10^-5 M", "setting": "human taste panel; natural, 8.47 × 10^-5 M, scale 0-100, mean (standard error)", "result": "15.8 (4.10)"}, {"measurement": "Sweetness pleasantness, hernandulcin 8.47 × 10^-5 M", "setting": "human taste panel; natural, 8.47 × 10^-5 M, scale -100 to +100, mean (standard error)", "result": "4.9 (7.67)"}, {"measurement": "Sweetness intensity, hernandulcin 16.9 × 10^-5 M", "setting": "human taste panel; natural, 16.9 × 10^-5 M, scale 0-100, mean (standard error)", "result": "39.7 (3.52)"}, {"measurement": "Sweetness pleasantness, hernandulcin 16.9 × 10^-5 M", "setting": "human taste panel; natural, 16.9 × 10^-5 M, scale -100 to +100, mean (standard error)", "result": "24.8 (7.99)"}, {"measurement": "Sweetness intensity, hernandulcin 33.9 × 10^-5 M", "setting": "human taste panel; natural, 33.9 × 10^-5 M, scale 0-100, mean (standard error)", "result": "44.4 (5.45)"}, {"measurement": "Sweetness pleasantness, hernandulcin 33.9 × 10^-5 M", "setting": "human taste panel; natural, 33.9 × 10^-5 M, scale -100 to +100, mean (standard error)", "result": "8.2 (10.70)"}, {"measurement": "Sweetness intensity, hernandulcin 67.8 × 10^-5 M", "setting": "human taste panel; natural, 67.8 × 10^-5 M, scale 0-100, mean (standard error)", "result": "62.7 (5.59)"}, {"measurement": "Sweetness pleasantness, hernandulcin 67.8 × 10^-5 M", "setting": "human taste panel; natural, 67.8 × 10^-5 M, scale -100 to +100, mean (standard error)", "result": "-16.2 (9.78)"}, {"measurement": "Sweetness intensity at matched concentration", "setting": "human taste panel; scale 0-100, sucrose 0.27 M, natural hernandulcin 2.5 × 10^-4 M", "result": 40}, {"measurement": "Sweetness pleasantness at matched concentration", "setting": "human taste panel; scale -100 to +100, natural hernandulcin 2.5 × 10^-4 M", "result": 15}, {"measurement": "solubility", "setting": "Water solubility", "result": "~500", "unit": "µg/mL"}, {"measurement": "Detectability of hernandulcin after storage", "setting": "[1]; [8]", "result": "detectable at all pH's"}, {"measurement": "pH dependence of decomposition", "setting": "[1]; [8]", "result": "greater degrees of decomposition being observed at the acid and alkaline pH extremes"}, {"measurement": "Breakdown in buffer at 60° C., 1 week and 2 weeks", "setting": "[1]; synthetic hernandulcin, about 0.1 wt. %, pH 2-12, 60° C.", "result": "substantial breakdown was apparent in all solutions"}, {"measurement": "Decomposition in buffer at 60° C., up to 24 hours", "setting": "[1]; synthetic hernandulcin, about 0.1 wt. %, pH 2-12, 60° C., up to 24 hours", "result": "no decomposition was observed"}, {"measurement": "Breakdown in buffer at room temperature", "setting": "[1]; synthetic hernandulcin, about 0.1 wt. %, pH 2-12, room temperature, up to two weeks", "result": "no compound breakdown was evident"}, {"measurement": "Stability to hydrolysis", "setting": "[1]; wide pH range, up to about 60° C.", "result": "relatively stable to hydrolysis over a wide pH range"}, {"measurement": "remaining at 24 h", "setting": "[2]; neat compound, read-out: Compound remaining unchanged", "result": "~60", "unit": "%"}, {"measurement": "Conversion to 3-methyl-2-cyclohexen-1-one", "setting": "[2]; [9]", "result": "~10", "unit": "%"}, {"measurement": "Conversion to 6-methyl-5-hepten-2-one", "setting": "[2]; [9]", "result": "~10", "unit": "%"}, {"measurement": "Acute toxicity for mice", "setting": "male Swiss-Webster mice; oral, in words", "result": "non-toxic"}, {"measurement": "Mortality at doses up to 2 g/kg", "setting": "male Swiss-Webster mice; oral, up to 2 g/kg body weight, in words", "result": "no mortality"}, {"measurement": "Body weight, Day 1 (1.0 g/kg)", "setting": "[3]", "result": "27.1 ± 0.8", "unit": "g"}, {"measurement": "Body weight, Day 1 (2.0 g/kg)", "setting": "[3]", "result": "25.6 ± 0.9", "unit": "g"}, {"measurement": "Body weight, Day 3 (1.0 g/kg)", "setting": "[3]", "result": "26.7 ± 0.8", "unit": "g"}, {"measurement": "Body weight, Day 3 (2.0 g/kg)", "setting": "[3]", "result": "26.3 ± 0.9", "unit": "g"}, {"measurement": "Body weight, Day 7 (1.0 g/kg)", "setting": "[3]", "result": "27.9 ± 0.8", "unit": "g"}, {"measurement": "Body weight, Day 7 (2.0 g/kg)", "setting": "[3]", "result": "26.0 ± 0.9", "unit": "g"}, {"measurement": "Body weight, Day 14 (1.0 g/kg)", "setting": "[3]", "result": "28.1 ± 0.8", "unit": "g"}, {"measurement": "Body weight, Day 14 (2.0 g/kg)", "setting": "[3]", "result": "27.6 ± 0.9", "unit": "g"}, {"measurement": "Body weight, pre-drug (1.0 g/kg group)", "setting": "[3]", "result": "29.3 ± 0.8", "unit": "g"}, {"measurement": "Body weight, pre-drug (2.0 g/kg group)", "setting": "[3]", "result": "26.0 ± 0.9", "unit": "g"}, {"measurement": "Mutagenicity", "setting": "[4]; summary in words", "result": "non-mutagenic"}]}
{"smiles": "CC(C)=CCC[C@@](C)(O)[C@H]1CCC(C)=CC1=O", "note": "(relative stereo) [synthetic hernandulcin, 6-(1',5'-dimethyl-1'-hydroxyhex-4'-en-1'-yl)-3-methyl-2-cyclohexen-1-one]", "values": [{"measurement": "Taste", "setting": "human taste panel; in words, synthetic racemic hernandulcin", "result": "sweet"}, {"measurement": "Acute toxicity for mice", "setting": "male Swiss-Webster mice; oral, in words", "result": "non-toxic"}, {"measurement": "Mutagenic activity without metabolic activation", "setting": "[4]; synthetic hernandulcin, in absence of activating system", "result": "No significant mutagenic activity"}, {"measurement": "Mutagenic activity with metabolic activation", "setting": "[4]; synthetic hernandulcin, in presence of activating system from livers of Aroclor 1254-pretreated rats", "result": "No significant mutagenic activity"}, {"measurement": "Rate of acid production at 5,000 micrograms per unit volume", "setting": "S. mutans [5]; 5,000 micrograms per unit volume sweetener", "result": "2.6×10^-5 mEq acid/min."}, {"measurement": "Rate of acid production compared to sucrose", "setting": "S. mutans [5]; in words, 5,000 micrograms per unit volume", "result": "relatively low rate of acid production"}, {"measurement": "Inhibition of acid production from sucrose", "setting": "S. mutans [6]", "result": "failed to reduce the rate of acid production"}]}
